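Exposure lasted 48 hours, with cells grown in 96-well plates and compounds tested at five concentrations. GI50 = concentration required for 50% inhibition of growth.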 Calls of active or inactive are those of the source. Rule as the data show it: active = GI50 up to about 1.1 µM and inactive = higher.
How the values were obtained:
Assay in all cases: inhibition of tumour cell growth, NCI panel, 48 h
[1] = tested on: UO-31
[2] = tested on: T47D
[3] = tested on: NCI-H226
[4] = tested on: SN12C
[5] = tested on: RXF 393
[6] = tested on: NCI-H460
[7] = tested on: HCC 2998
[8] = tested on: SNB-75
[9] = tested on: ACHN
[10] = tested on: CAKI-1
[11] = tested on: SNB-19
[12] = tested on: OVCAR-8
[13] = tested on: MCF7
[14] = tested on: BT-549
[15] = tested on: SW-620
[16] = tested on: OVCAR-4
[17] = tested on: NCI-H522
[18] = tested on: CCRF-CEM
[19] = tested on: HCT-15

Compound | GI50 [1] | GI50 [2] | GI50 [3] | GI50 [4] | GI50 [5] | GI50 [6] | GI50 [7] | GI50 [8] | GI50 [9] | GI50 [10] | GI50 [11] | GI50 [12] | GI50 [13] | GI50 [14] | GI50 [15] | GI50 [16] | GI50 [17] | GI50 [18] | GI50 [19] [µM]
CC1(C)CC2(C)ON=C(c3ccccc3)N2c2ccccc2N1 (stereo not drawn) | 18.2 µM (inactive) | 21.9 µM (inactive) | 17.3 µM (inactive) | 30.3 µM (inactive) | 20.8 µM (inactive) | 20.9 µM (inactive) | 35.2 µM (inactive) | 23.9 µM (inactive) | 19.5 µM (inactive) | 20.8 µM (inactive) | 24.2 µM (inactive) | 27.7 µM (inactive) | 22.2 µM (inactive) | 17.8 µM (inactive) | 36.5 µM (inactive) | 39.8 µM (inactive) | 21.4 µM (inactive) | 32.7 µM (inactive) | 29.6
O=c1nc2n(CCO)c(-c3ccccc3)c(-c3ccccc3)nc-2c(=O)[nH]1 | > 100 µM (inactive) | > 100 µM (inactive) | > 100 µM (inactive) | > 100 µM (inactive) | > 100 µM (inactive) | > 100 µM (inactive) | > 100 µM (inactive) | > 100 µM (inactive) | > 100 µM (inactive) | > 100 µM (inactive) | > 100 µM (inactive) | > 100 µM (inactive) | > 100 µM (inactive) | > 100 µM (inactive) | > 100 µM (inactive) | > 100 µM (inactive) | > 100 µM (inactive) | > 100 µM (inactive) | > 100
Nc1ccc(S(=O)(=O)Nc2nnc(S(N)(=O)=O)s2)cc1 | > 100 µM (inactive) | > 100 µM (inactive) | 45.4 µM (inactive) | – | > 100 µM (inactive) | > 100 µM (inactive) | > 100 µM (inactive) | > 100 µM (inactive) | > 100 µM (inactive) | > 100 µM (inactive) | > 100 µM (inactive) | – | > 100 µM (inactive) | > 100 µM (inactive) | > 100 µM (inactive) | > 100 µM (inactive) | > 100 µM (inactive) | – | > 100
N#Cc1c(NC(=S)NCc2ccccc2)sc2c1CCN(N1CCc3c(sc(NC(=S)NCc4ccccc4)c3C#N)C1)C2 | > 100 µM (inactive) | > 100 µM (inactive) | > 100 µM (inactive) | > 100 µM (inactive) | > 100 µM (inactive) | > 100 µM (inactive) | > 100 µM (inactive) | > 100 µM (inactive) | > 100 µM (inactive) | > 100 µM (inactive) | > 100 µM (inactive) | > 100 µM (inactive) | > 100 µM (inactive) | > 100 µM (inactive) | > 100 µM (inactive) | > 100 µM (inactive) | > 100 µM (inactive) | > 100 µM (inactive) | > 100
CC(C)CC(=O)CC(O)C(Cl)(Cl)Cl (stereo not drawn) | > 100 µM (inactive) | > 100 µM (inactive) | > 100 µM (inactive) | > 100 µM (inactive) | > 100 µM (inactive) | – | > 100 µM (inactive) | > 100 µM (inactive) | > 100 µM (inactive) | > 100 µM (inactive) | > 100 µM (inactive) | > 100 µM (inactive) | > 100 µM (inactive) | > 100 µM (inactive) | > 100 µM (inactive) | > 100 µM (inactive) | 3.95 µM (inactive) | > 100 µM (inactive) | > 100
CC(=O)OC1CC2C(C)(C)C(=O)C=CC2(C)C2CCC3(C)C(c4ccoc4)OC(=O)C4OC43C12C (stereo not drawn) | 4.23 µM (inactive) | 12.5 µM (inactive) | 22.2 µM (inactive) | 4.21 µM (inactive) | 4.66 µM (inactive) | 3.48 µM (inactive) | 3.33 µM (inactive) | > 100 µM (inactive) | 8.73 µM (inactive) | 11.9 µM (inactive) | 19.5 µM (inactive) | 8.04 µM (inactive) | 4.69 µM (inactive) | 5.77 µM (inactive) | 6.28 µM (inactive) | 32.4 µM (inactive) | 5.18 µM (inactive) | – | 5.07
Cc1n[nH]c(=O)n1/N=C/c1ccc([N+](=O)[O-])o1 | 14.5 µM (inactive) | 19.5 µM (inactive) | 15.6 µM (inactive) | 5.64 µM (inactive) | 0.881 µM (active) | 14.3 µM (inactive) | 20.6 µM (inactive) | 32.4 µM (inactive) | 10.9 µM (inactive) | 7.8 µM (inactive) | 31 µM (inactive) | 15.2 µM (inactive) | 18 µM (inactive) | 21.8 µM (inactive) | 13.9 µM (inactive) | 16.7 µM (inactive) | 3.13 µM (inactive) | 13.5 µM (inactive) | 7.01
